From the supplement of paper PMC11208160
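Note: IS621 recombinase and bridge RNA in Escherichia coli cells.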

Test: recombinant barcode read abundance after kanamycin selection (control-corrected) (log10(CPM+1)); higher = more efficient recombination; sequences stand for … in AGTGCAGAGAAAATCGGCCAGTTTTCTCTGCCTGCAGTCCGCATGCCGT…AGATTTATGCAGCGGACTGCCTTTCTCCCAAAGTGATAAACCGGACAGTATCATGGACCGGTTTTCCCGGTAATCCGTATTTGCAAGGTTGGTTTCACT; site = the 11-nt target
Procedure, shortened: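 Each value is log10(CPM+1). It describes recombination efficiency, taken as averaged, control-corrected counts per million of barcodes at recombinant junctions. The pooled E. coli library paired targets with IS621 bridge RNA target-binding loops, was co-electroporated with a donor plasmid, and was plated twice on chloramphenicol/ampicillin LB agar (control) and twice on chloramphenicol/ampicillin/kanamycin containing 0.1 mM IPTG.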
With “TCGGAGTCTTGGGTTCTAACCTGTTGCTT (site TCGGAGTCTAG)” the “recombinant barcode read abundance (log10)” value was 1.17.
With “TCGGAGTCTTGGGTTCTAACCTGTTGCTT (site TCGGAGTCTAT)” the “recombinant barcode read abundance (log10)” value was 1.39.
With “TCGGATGCTTGGGTTCTAACCTGTTGCAT (site GTTTCGACTTA)” the “recombinant barcode read abundance (log10)” value was 0.272.
In the case of “TCGGATGCTTGGGTTCTAACCTGTTGCAT (site TCGGATGCTAT)”, the “recombinant barcode read abundance (log10)” value is reported as 0.417.
For “TCGGCTCCTTGGGTTCTAACCTGTTGCCT (site TCGGCTCCTAG)”, the “recombinant barcode read abundance (log10)” value was 0.712.
In the case of “TCGGCTCCTTGGGTTCTAACCTGTTGCCT (site TTGGCGCCTAG)”, the “recombinant barcode read abundance (log10)” value is reported as 0.149.
With “TCGGGGTCTTGGGTTCTAACCTGTTGCCT (site ACGGGGTCTAG)” the “recombinant barcode read abundance (log10)” value was 1.23.
For “TCGGGGTCTTGGGTTCTAACCTGTTGCCT (site CCGGGGTCTAG)”, the “recombinant barcode read abundance (log10)” value was 0.543.
For “TCGGGGTCTTGGGTTCTAACCTGTTGCCT (site GCGGGGTCTAG)”, the “recombinant barcode read abundance (log10)” value was 0.0776.
For “TCGGGGTCTTGGGTTCTAACCTGTTGCCT (site TCGGGGTCTAG)”, the “recombinant barcode read abundance (log10)” value was 1.27.
In the case of “TCGGTTCCTTGGGTTCTAACCTGTTGCCT (site TAGGTTCCTAG)”, the “recombinant barcode read abundance (log10)” value is reported as 0.439.
In the case of “TCGGTTCCTTGGGTTCTAACCTGTTGCCT (site TCGGTTCCTAG)”, the “recombinant barcode read abundance (log10)” value is reported as 0.811.
In the case of “TCGTAGACTTGGGTTCTAACCTGTTGCTA (site GGTCGCCCTAC)”, the “recombinant barcode read abundance (log10)” value is reported as 0.16.
With “TCGTAGACTTGGGTTCTAACCTGTTGCTA (site TCGTAGACTTA)” the “recombinant barcode read abundance (log10)” value was 0.215.
For “TCGTCACCTTGGGTTCTAACCTGTTGCCT (site ACGTCACCTAG)”, the “recombinant barcode read abundance (log10)” value was 0.
In the case of “TCGTCACCTTGGGTTCTAACCTGTTGCCT (site CCGTCACCTAG)”, the “recombinant barcode read abundance (log10)” value is reported as 0.332.
For “TCGTCACCTTGGGTTCTAACCTGTTGCCT (site GCGTCACCTAG)”, the “recombinant barcode read abundance (log10)” value was 0.139.
In the case of “TCGTCACCTTGGGTTCTAACCTGTTGCCT (site TCGTCACCTAG)”, the “recombinant barcode read abundance (log10)” value is reported as 0.348.
In the case of “TCGTCCTCTTGGGTTCTAACCTGTTGCCT (site TCGTCATCTAG)”, the “recombinant barcode read abundance (log10)” value is reported as 0.225.
In the case of “TCGTCCTCTTGGGTTCTAACCTGTTGCCT (site TCGTCCTCTAG)”, the “recombinant barcode read abundance (log10)” value is reported as 0.323.
With “TCGTGCGCTTGGGTTCTAACCTGTTGCCT (site TCGTGCACTAG)” the “recombinant barcode read abundance (log10)” value was 0.177.
In the case of “TCGTGCGCTTGGGTTCTAACCTGTTGCCT (site TCGTGCCCTAG)”, the “recombinant barcode read abundance (log10)” value is reported as 0.087.
With “TCGTGCGCTTGGGTTCTAACCTGTTGCCT (site TCGTGCGCTAG)” the “recombinant barcode read abundance (log10)” value was 0.0883.
In the case of “TCGTGCGCTTGGGTTCTAACCTGTTGCCT (site TCGTGCTCTAG)”, the “recombinant barcode read abundance (log10)” value is reported as 0.
With “TCGTGTTCTTGGGTTCTAACCTGTTGCTA (site CCTTGTTCTTA)” the “recombinant barcode read abundance (log10)” value was 0.0623.
For “TCGTGTTCTTGGGTTCTAACCTGTTGCTA (site TCGTGTTCTTA)”, the “recombinant barcode read abundance (log10)” value was 0.0576.
For “TCGTTCGCTTGGGTTCTAACCTGTTGCCT (site TCCTTCACTAG)”, the “recombinant barcode read abundance (log10)” value was 0.0905.
With “TCGTTCGCTTGGGTTCTAACCTGTTGCCT (site TCGTTCGCTAG)” the “recombinant barcode read abundance (log10)” value was 0.21.
With “TCTAAGTCTTGGGTTCTAACCTGTTGCCC (site TCTAAGTCTAG)” the “recombinant barcode read abundance (log10)” value was 0.132.
For “TCTAAGTCTTGGGTTCTAACCTGTTGCCC (site TCTAAGTCTCG)”, the “recombinant barcode read abundance (log10)” value was 0.0902.
In the case of “TCTAAGTCTTGGGTTCTAACCTGTTGCCC (site TCTAAGTCTGG)”, the “recombinant barcode read abundance (log10)” value is reported as 0.194.
For “TCTAAGTCTTGGGTTCTAACCTGTTGCCC (site TCTAAGTCTTG)”, the “recombinant barcode read abundance (log10)” value was 0.00905.
For “TCTAAGTCTTGGGTTCTAACCTGTTGCCT (site TCTAAGTCTAG)”, the “recombinant barcode read abundance (log10)” value was 0.134.
With “TCTAAGTCTTGGGTTCTAACCTGTTGCCT (site TCTAAGTCTCG)” the “recombinant barcode read abundance (log10)” value was 0.132.
In the case of “TCTAAGTCTTGGGTTCTAACCTGTTGCCT (site TCTAAGTCTGG)”, the “recombinant barcode read abundance (log10)” value is reported as 0.172.
For “TCTAAGTCTTGGGTTCTAACCTGTTGCCT (site TCTAAGTCTTG)”, the “recombinant barcode read abundance (log10)” value was 0.281.
In the case of “TCTAGATCTTGGGTTCTAACCTGTTGCCT (site TCTAGAACTAG)”, the “recombinant barcode read abundance (log10)” value is reported as 0.0897.
With “TCTAGATCTTGGGTTCTAACCTGTTGCCT (site TCTAGACCTAG)” the “recombinant barcode read abundance (log10)” value was 0.0764.
For “TCTAGATCTTGGGTTCTAACCTGTTGCCT (site TCTAGAGCTAG)”, the “recombinant barcode read abundance (log10)” value was 0.135.
With “TCTAGATCTTGGGTTCTAACCTGTTGCCT (site TCTAGATCTAG)” the “recombinant barcode read abundance (log10)” value was 0.0616.
For “TCTATCCCTTGGGTTCTAACCTGTTGCCT (site TCAATCCCTAG)”, the “recombinant barcode read abundance (log10)” value was 0.113.
In the case of “TCTATCCCTTGGGTTCTAACCTGTTGCCT (site TCCATCCCTAG)”, the “recombinant barcode read abundance (log10)” value is reported as 0.105.
For “TCTATCCCTTGGGTTCTAACCTGTTGCCT (site TCGATCCCTAG)”, the “recombinant barcode read abundance (log10)” value was 0.0408.
With “TCTATCCCTTGGGTTCTAACCTGTTGCCT (site TCTATCCCTAG)” the “recombinant barcode read abundance (log10)” value was 0.203.
For “TCTATGACTTGGGTTCTAACCTGTTGCCT (site TCTATGACTAG)”, the “recombinant barcode read abundance (log10)” value was 0.0099.
With “TCTATGACTTGGGTTCTAACCTGTTGCCT (site TCTATGTCTAG)” the “recombinant barcode read abundance (log10)” value was 0.187.
For “TCTCAGCCTTGGGTTCTAACCTGTTGCCT (site TCTCAGCCTAG)”, the “recombinant barcode read abundance (log10)” value was 0.453.
In the case of “TCTCAGCCTTGGGTTCTAACCTGTTGCCT (site TCTCCGCCTAG)”, the “recombinant barcode read abundance (log10)” value is reported as 0.0825.
With “TCTCAGCCTTGGGTTCTAACCTGTTGCCT (site TCTCGGCCTAG)” the “recombinant barcode read abundance (log10)” value was 0.291.
For “TCTCAGCCTTGGGTTCTAACCTGTTGCCT (site TCTCTGCCTAG)”, the “recombinant barcode read abundance (log10)” value was 0.0307.
For “TCTGAAACTTGGGTTCTAACCTGTTGCCT (site TCCGAAACTAT)”, the “recombinant barcode read abundance (log10)” value was 0.12.
With “TCTGAAACTTGGGTTCTAACCTGTTGCCT (site TCTGAAACTAG)” the “recombinant barcode read abundance (log10)” value was 0.413.
For “TCTGGGCCTTGGGTTCTAACCTGTTGCTT (site TCTGGGCCTAA)”, the “recombinant barcode read abundance (log10)” value was 0.0924.
For “TCTGGGCCTTGGGTTCTAACCTGTTGCTT (site TCTGGGCCTTA)”, the “recombinant barcode read abundance (log10)” value was 0.525.
With “TCTGGGGCTTGGGTTCTAACCTGTTGCAG (site TCTGGGGCTCA)” the “recombinant barcode read abundance (log10)” value was 0.686.
With “TCTGGGGCTTGGGTTCTAACCTGTTGCAG (site TCTGGGGCTCC)” the “recombinant barcode read abundance (log10)” value was 0.189.
With “TCTGGGGCTTGGGTTCTAACCTGTTGCAG (site TCTGGGGCTCG)” the “recombinant barcode read abundance (log10)” value was 0.159.
For “TCTGGGGCTTGGGTTCTAACCTGTTGCAG (site TCTGGGGCTCT)”, the “recombinant barcode read abundance (log10)” value was 2.15.
For “TCTGTCTCTTGGGTTCTAACCTGTTGCCT (site TCTGTCTCTAG)”, the “recombinant barcode read abundance (log10)” value was 2.03.
For “TCTGTCTCTTGGGTTCTAACCTGTTGCCT (site TGTGTCTCTAC)”, the “recombinant barcode read abundance (log10)” value was 0.0569.
For “TCTTGGACTTGGGTTCTAACCTGTTGCTA (site TCTTGGACTAA)”, the “recombinant barcode read abundance (log10)” value was 0.214.
With “TCTTGGACTTGGGTTCTAACCTGTTGCTA (site TCTTGGACTCA)” the “recombinant barcode read abundance (log10)” value was 0.0354.
For “TCTTGGACTTGGGTTCTAACCTGTTGCTA (site TCTTGGACTGA)”, the “recombinant barcode read abundance (log10)” value was 0.0809.
With “TCTTGGACTTGGGTTCTAACCTGTTGCTA (site TCTTGGACTTA)” the “recombinant barcode read abundance (log10)” value was 0.0613.
For “TGAAAGTCTTGGGTTCTAACCTGTTGCCT (site TGAAAGTCTAG)”, the “recombinant barcode read abundance (log10)” value was 0.727.
In the case of “TGAAAGTCTTGGGTTCTAACCTGTTGCCT (site TGAACGTCTAG)”, the “recombinant barcode read abundance (log10)” value is reported as 0.0267.
In the case of “TGAAAGTCTTGGGTTCTAACCTGTTGCCT (site TGAAGGTCTAG)”, the “recombinant barcode read abundance (log10)” value is reported as 0.15.
With “TGAAAGTCTTGGGTTCTAACCTGTTGCCT (site TGAATGTCTAG)” the “recombinant barcode read abundance (log10)” value was 0.0411.
With “TGAACTCCTTGGGTTCTAACCTGTTGCCT (site GTAACTCCTAG)” the “recombinant barcode read abundance (log10)” value was 0.118.
For “TGAACTCCTTGGGTTCTAACCTGTTGCCT (site TGAACTCCTAG)”, the “recombinant barcode read abundance (log10)” value was 0.122.
For “TGACATTCTTGGGTTCTAACCTGTTGCTT (site GGACATTCTAA)”, the “recombinant barcode read abundance (log10)” value was 0.139.
In the case of “TGACATTCTTGGGTTCTAACCTGTTGCTT (site TGACATTCTAA)”, the “recombinant barcode read abundance (log10)” value is reported as 0.13.
For “TGAGACACTTGGGTTCTAACCTGTTGCTG (site TGACACACTCA)”, the “recombinant barcode read abundance (log10)” value was 0.0729.
For “TGAGACACTTGGGTTCTAACCTGTTGCTG (site TGAGACACTCA)”, the “recombinant barcode read abundance (log10)” value was 2.68.
In the case of “TGAGACTCTTGGGTTCTAACCTGTTGCCT (site TGAGACTCTAG)”, the “recombinant barcode read abundance (log10)” value is reported as 2.2.
In the case of “TGAGACTCTTGGGTTCTAACCTGTTGCCT (site TGCGACTCTAG)”, the “recombinant barcode read abundance (log10)” value is reported as 0.0734.
In the case of “TGAGACTCTTGGGTTCTAACCTGTTGCCT (site TGGGACTCTAG)”, the “recombinant barcode read abundance (log10)” value is reported as 0.198.
For “TGAGACTCTTGGGTTCTAACCTGTTGCCT (site TGTGACTCTAG)”, the “recombinant barcode read abundance (log10)” value was 0.463.
With “TGAGCTACTTGGGTTCTAACCTGTTGCAC (site TGAGCTACTGT)” the “recombinant barcode read abundance (log10)” value was 1.16.
For “TGAGCTACTTGGGTTCTAACCTGTTGCAC (site TGTGCGACTGT)”, the “recombinant barcode read abundance (log10)” value was 0.0102.
For “TGAGGATCTTGGGTTCTAACCTGTTGCCT (site TGAGGATCTAG)”, the “recombinant barcode read abundance (log10)” value was 0.99.
For “TGAGGATCTTGGGTTCTAACCTGTTGCCT (site TGAGGCACTAG)”, the “recombinant barcode read abundance (log10)” value was 0.503.
In the case of “TGAGGGACTTGGGTTCTAACCTGTTGCCT (site CTCATAGCTTC)”, the “recombinant barcode read abundance (log10)” value is reported as 0.0546.
For “TGAGGGACTTGGGTTCTAACCTGTTGCCT (site TGAGGGACTAG)”, the “recombinant barcode read abundance (log10)” value was 1.9.
In the case of “TGAGTCCCTTGGGTTCTAACCTGTTGCTT (site TGAGTACCTAA)”, the “recombinant barcode read abundance (log10)” value is reported as 0.0411.
For “TGAGTCCCTTGGGTTCTAACCTGTTGCTT (site TGAGTCCCTAA)”, the “recombinant barcode read abundance (log10)” value was 1.67.
